pEC50: −log10 of the molar value. Read-outs that look alike come from different tables or passages of the source.
Assays:
[1] = biological target: T1, CFTR-mediated short-circuit current in F508del/MF-HBE cells (Homo sapiens, UniProt P13569, DEL508-508); assay: HBE assay: Ussing chamber assay of CFTR-mediated short-circuit currents; assay type: cell-based; conditions: for Emax: read-out: HBE Max Activity (%)
T1 construct: human bronchial epithelial (HBE) cells derived from CF subjects; endogenous in cells; host or cells: primary human bronchial epithelial cells from CF subjects (F508del/MF-HBE)
Procedure: (§1) 1. Ussing Chamber Assay of CFTR-Mediated Short-Circuit Currents
(§2) Ussing chamber experiments were performed using human bronchial epithelial (HBE) cells derived from CF subjects heterozygous for F508del and a minimal function CFTR mutation (F508del/MF-HBE) and cultured as previously described (Neuberger T, Burton B, Clark H, Van Goor F Methods Mol Biol 2011:741:39-54). After four days the apical media was removed, and the cells were grown at an air liquid interface for >14 days prior to use.
(§3) To isolate the CFTR-mediated short-circuit (ISC) current, F508del/MF-HBE grown on Costar® Snapwell™ cell culture inserts were mounted in an Ussing chamber and the transepithelial ISC was measured under voltage-clamp recording conditions (Vhold=0 mV) at 37° C. The basolateral solution contained (in mM) 145 NaCl, 0.83 K2HPO4, 3.3 KH2PO4, 1.2 MgCl2, 1.2 CaCl2), 10 Glucose, 10 HEPES (pH adjusted to 7.4 with NaOH) and the apical solution contained (in mM) 145 NaGluconate, 1.2 MgCl2, 1.2 CaCl2, 10 glucose, 10 HEPES (pH adjusted to 7.4 with NaOH) and 30 μM amiloride to block the epithelial sodium channel. Forskolin (20 μM) was added to the apical surface to activate CFTR, followed by apical addition of a CFTR inhibitor cocktail consisting of BPO, GlyH-101, and CFTR inhibitor 172 (each at 20 μM final assay concentration) to specifically isolate CFTR currents. The CFTR-mediated ISC (μA/cm^2) for each condition was determined from the peak forskolin response to the steady-state current following inhibition.
(§4) 2. Identification of Corrector Compounds
(§5) The activity of the CFTR corrector compounds on the CFTR-mediated ISC was determined in Ussing chamber studies as described above. The F508del/MF-HBE cell cultures were either incubated with the corrector compounds at a range of concentrations in combination with 1 μM Ivacaftor or were incubated with the corrector compounds at a single fixed concentration of 10 μM in combination with 1 μM Ivacaftor for 18-24 hours at 37° C. and in the presence of 20% human serum. The concentration of corrector compounds with 1 μM Ivacaftor during the 18-24 hours incubations was kept constant throughout the Ussing chamber measurement of the CFTR-mediated ISC to ensure compounds were present throughout the entire experiment.
as §3, with “CaCl2,” for “CaCl2),”

[2] = biological target: T1, CFTR-mediated short-circuit current in F508del/MF-HBE cells; assay: HBE2 assay: Ussing chamber assay of CFTR-mediated short-circuit currents; assay type: cell-based
Procedure: as §1, §2
as §3, with “CaCl2,” for “CaCl2),”
as §4
as §5, with “44 nM (6R,12R)-17-amino-12-methyl-6,15-bis(trifluoromethyl)-13,19-dioxa-3,4,18-triazatricyclo[12.3.1.12,5]nonadeca-1(18),2,4,14,16-pentaen-6-ol” for “1 μM Ivacaftor”, “1 and 3” for “10”, “[…]” for “20%”

[3] = from 3-[[4-[(1-benzylpiperazin-2-yl)methoxy]-6-(2,6-dimethylphenyl)pyrimidin-2-yl]sulfamoyl]benzoic acid (Dihydrochloride salt); amide bond; 14-membered ring; HATU/DIEA; DMF; 12.7 mM; 25.0 °C; 3 steps
[4] = F508del/MF-HBE, 18-24 hours with 1 μM Ivacaftor, 20% human serum, compared to known Vertex corrector with Tezacaftor and Ivacaftor
[5] = F508del/MF-HBE, 18-24 hours with 1 μM Ivacaftor, 20% human serum, read-out: HBE EC50
[6] = F508del/MF-HBE cells, 18-24 hours incubation

T1 sequence (P13569 with tags, fused parts or gaps DEL508-508): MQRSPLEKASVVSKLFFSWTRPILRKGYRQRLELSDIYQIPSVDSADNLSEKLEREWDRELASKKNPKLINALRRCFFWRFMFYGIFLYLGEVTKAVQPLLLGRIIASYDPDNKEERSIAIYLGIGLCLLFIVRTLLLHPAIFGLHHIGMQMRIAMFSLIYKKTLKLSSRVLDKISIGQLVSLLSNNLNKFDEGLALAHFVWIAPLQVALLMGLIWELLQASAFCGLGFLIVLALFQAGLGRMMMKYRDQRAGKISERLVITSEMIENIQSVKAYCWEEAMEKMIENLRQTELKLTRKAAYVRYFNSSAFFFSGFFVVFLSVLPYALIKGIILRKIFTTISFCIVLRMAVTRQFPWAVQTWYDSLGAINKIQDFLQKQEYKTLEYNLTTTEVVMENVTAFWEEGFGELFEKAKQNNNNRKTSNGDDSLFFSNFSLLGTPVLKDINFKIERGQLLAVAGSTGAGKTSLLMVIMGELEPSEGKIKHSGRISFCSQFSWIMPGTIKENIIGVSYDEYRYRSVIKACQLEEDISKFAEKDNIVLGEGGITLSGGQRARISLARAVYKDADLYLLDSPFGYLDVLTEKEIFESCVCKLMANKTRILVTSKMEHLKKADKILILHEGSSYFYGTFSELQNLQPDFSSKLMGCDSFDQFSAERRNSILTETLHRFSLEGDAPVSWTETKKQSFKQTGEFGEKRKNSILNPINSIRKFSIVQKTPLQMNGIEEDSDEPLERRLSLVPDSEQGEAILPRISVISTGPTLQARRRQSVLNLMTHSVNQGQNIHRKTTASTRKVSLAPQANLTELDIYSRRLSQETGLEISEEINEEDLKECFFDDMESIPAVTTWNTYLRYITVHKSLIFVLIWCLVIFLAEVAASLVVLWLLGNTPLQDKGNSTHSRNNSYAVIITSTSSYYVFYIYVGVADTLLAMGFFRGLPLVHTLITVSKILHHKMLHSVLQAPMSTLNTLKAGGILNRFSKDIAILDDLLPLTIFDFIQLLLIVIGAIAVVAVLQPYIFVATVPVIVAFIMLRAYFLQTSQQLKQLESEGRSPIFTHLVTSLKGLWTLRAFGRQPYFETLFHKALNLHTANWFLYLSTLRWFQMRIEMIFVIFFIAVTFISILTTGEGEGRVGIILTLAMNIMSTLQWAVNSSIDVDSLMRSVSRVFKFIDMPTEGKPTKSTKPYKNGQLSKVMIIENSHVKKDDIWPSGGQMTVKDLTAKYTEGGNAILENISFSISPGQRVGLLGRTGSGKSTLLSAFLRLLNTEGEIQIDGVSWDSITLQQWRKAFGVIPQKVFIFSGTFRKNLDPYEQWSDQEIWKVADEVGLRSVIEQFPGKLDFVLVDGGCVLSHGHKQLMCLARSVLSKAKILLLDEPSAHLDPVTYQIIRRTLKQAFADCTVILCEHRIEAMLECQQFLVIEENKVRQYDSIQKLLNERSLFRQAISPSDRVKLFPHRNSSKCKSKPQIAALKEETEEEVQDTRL

## Cc1cccc(C)c1-c1cc2nc(n1)NS(=O)(=O)c1cccc(c1)C(=O)N1C(c3ncc(OC(C)C)cn3)CCC(CC(C)C)C1CO2 (stereo not shown) [Compound 414]
[1]
  HBE Activity at 10 μM (%): +++ (+++ is >60%)

## Cc1cccc(C)c1-c1cc2nc(n1)NS(=O)(=O)c1cccc(c1)C(=O)N1[C@@H](c3cccc(N(C)C4CC5(CC5)C4)n3)CC[C@@H](C(C)C)[C@H]1CO2 (single isomer, unassigned) [Compound 390, 13-(2,6-dimethylphenyl)-7-isopropyl-4-[6-[methyl(spiro[2.3]hexan-5-yl)amino]-2-pyridyl]-17,17-dioxo-10-oxa-17λ^6-thia-3,14,16,23-tetrazatetracyclo[16.3.1.111,15.03,8]tricosa-1(21),11,13,15(23),18(22),19-hexaen-2-one]
[1]
  HBE Activity at 10 μM (%): +++ (+++ is >60%)

## Cc1cccc(C)c1-c1cc2nc(n1)NS(=O)(=O)c1cccc(c1)C(=O)N1[C@H](CCC[C@@H]1c1ccccn1)CO2 [Compound 328]
[1]; [4]
  Emax: 30 to 60%
[1]; [5]
  pEC50: 5.52 to 6.00

## Cc1cccc(C)c1-c1cc2nc(n1)NS(=O)(=O)c1cccc(c1)C(=O)N1[C@@H](c3ncc(OC(C)C)cn3)CC[C@@H](CC(C)C)[C@H]1CO2 (single isomer, unassigned) [Compound 392, 13-(2,6-dimethylphenyl)-7-isobutyl-4-(5-isopropoxypyrimidin-2-yl)-17,17-dioxo-10-oxa-17λ^6-thia-3,14,16,23-tetrazatetracyclo[16.3.1.111,15.03,8]tricosa-1(21),11,13,15(23),18(22),19-hexaen-2-one]
[1]
  HBE Activity at 10 μM (%): ++ (++ is 30-60%)

## Cc1cccc(C)c1-c1cc2nc(n1)NS(=O)(=O)c1cccc(c1)C(=O)N1[C@H](CCC[C@@H]1c1ccccn1)CO2 [Compound 327]
[1]; [4]
  HBE Max activity (%): ++ (++ is 30-60%)
[1]; [5]
  pEC50: 4.52 to 5.52

## Cc1cccc(C)c1-c1cc2nc(n1)NS(=O)(=O)c1cccc(c1)C(=O)N1[C@@H](c3ncc(OC(C)C)cn3)CC[C@@H](CC(C)C)[C@H]1CO2 (single isomer, unassigned) [Compound 393, 13-(2,6-dimethylphenyl)-7-isobutyl-4-(5-isopropoxypyrimidin-2-yl)-17,17-dioxo-10-oxa-17λ^6-thia-3,14,16,23-tetrazatetracyclo[16.3.1.111,15.03,8]tricosa-1(21),11,13,15(23),18(22),19-hexaen-2-one]
[1]
  HBE Activity at 10 μM (%): +++ (+++ is >60%)
[2]
  activation at 3 µM: > 60%

## Cc1cccc(C)c1-c1cc2nc(n1)NS(=O)(=O)c1cccc(c1)C(=O)N1[C@@H](c3cccc(N(C)C4CC5(CC5)C4)n3)CC[C@@H](C(C)C)[C@H]1CO2 (single isomer, unassigned) [Compound 391, 13-(2,6-dimethylphenyl)-7-isopropyl-4-[6-[methyl(spiro[2.3]hexan-5-yl)amino]-2-pyridyl]-17,17-dioxo-10-oxa-17λ^6-thia-3,14,16,23-tetrazatetracyclo[16.3.1.111,15.03,8]tricosa-1(21),11,13,15(23),18(22),19-hexaen-2-one]
[1]
  HBE Activity at 10 μM (%): ++ (++ is 30-60%)

## Cc1cccc(C)c1-c1cc2nc(n1)NS(=O)(=O)c1cccc(c1)C(=O)N1[C@@H](c3ncc(OC(C)C)cn3)CC[C@@H](C(C)C)[C@H]1CO2 (single isomer, unassigned) [Compound 388, 13-(2,6-Dimethylphenyl)-4-(5-isopropoxypyrimidin-2-yl)-7-isopropyl-17,17-dioxo-10-oxa-17λ^6-thia-3,14,16,23-tetrazatetracyclo[16.3.1.111,15.03,8]tricosa-1(21),11,13,15(23),18(22),19-hexaen-2-one]
[1]; [6]
  pEC50: > 6.00
  HBE Max activity (%): +++ (+++ is >60%)

## Cc1cccc(C)c1-c1cc2nc(n1)NS(=O)(=O)c1cccc(c1)C(=O)N1CCNC(CO2)C1 (stereo not shown)
[3]
  ring closure, crude yield: 22%

## Cc1cccc(C)c1-c1cc2nc(n1)NS(=O)(=O)c1cccc(c1)C(=O)N1C(c3ncc(OC(C)C)cn3)CCC(C(C)C)C1CO2 (stereo not shown) [Compound 371]
[1]; [4]
  Emax: > 60%
[1]; [5]
  pEC50: > 6.00

## Cc1cccc(C)c1-c1cc2nc(n1)NS(=O)(=O)c1cccc(c1)C(=O)N1[C@@H](c3ncc(OC(C)C)cn3)CC[C@@H](C(C)C)[C@H]1CO2 (single isomer, unassigned) [Compound 389, 13-(2,6-dimethylphenyl)-4-(5-isopropoxypyrimidin-2-yl)-7-isopropyl-17,17-dioxo-10-oxa-17λ^6-thia-3,14,16,23-tetrazatetracyclo[16.3.1.111,15.03,8]tricosa-1(21),11,13,15(23),18(22),19-hexaen-2-one]
[1]; [6]
  pEC50: 5.52 to 6.00
  HBE Max activity (%): + (+ is <30+)

## Cc1cccc(C)c1-c1cc2nc(n1)NS(=O)(=O)c1cccc(c1)C(=O)N1[C@@H](c3ncc(OC(C)C)cn3)CCC[C@@H](CC(C)C)[C@H]1CO2 (single isomer, unassigned) [Compound 394, 14-(2,6-Dimethylphenyl)-8-isobutyl-4-(5-isopropoxypyrimidin-2-yl)-18,18-dioxo-11-oxa-18λ^6-thia-3,15,17,24-tetrazatetracyclo[17.3.1.112,16.03,9]tetracosa-1(22),12,14,16(24),19(23),20-hexaen-2-one]
[2]
  HBE2 Activity at 3 μM (%): +++ (+++ is >60%)

## Cc1cccc(C)c1-c1cc2nc(n1)NS(=O)(=O)c1cccc(c1)C(=O)N1[C@@H](c3ncc(OC(C)C)cn3)CCC[C@@H](O2)[C@H]1CC(C)C (single isomer, unassigned) [Compound 405, 12-(2,6-Dimethylphenyl)-21-isobutyl-20-(5-isopropoxypyrimidin-2-yl)-8,8-dioxo-15-oxa-8λ^6-thia-1,9,11,22-tetrazatetracyclo[14.4.1.13,7.110,14]tricosa-3,5,7(23),10(22),11,13-hexaen-2-one]
[2]
  HBE2 Activity at 3 μM (%): +++ (+++ is >60%)

Source: US20240018161A1, “MODULATORS OF CYSTIC FIBROSIS TRANSMEMBRANE CONDUCTANCE REGULATOR” (VERTEX PHARMACEUTICALS INCORPORATED, priority 2020, published 2024)
